In patent US20210347780A1, “CDPK1 INHIBITORS, COMPOSITIONS, AND METHODS RELATED THERETO” (Vyera Pharmaceuticals, LLC, priority 2018, published 2021):
pIC50: −log10 of the molar value.

Biological target: T1, T. gondii CDPK1 (tgCDPK1) (Toxoplasma gondii, UniProt Q9BJF5)
T1 sequence (Q9BJF5 1-507): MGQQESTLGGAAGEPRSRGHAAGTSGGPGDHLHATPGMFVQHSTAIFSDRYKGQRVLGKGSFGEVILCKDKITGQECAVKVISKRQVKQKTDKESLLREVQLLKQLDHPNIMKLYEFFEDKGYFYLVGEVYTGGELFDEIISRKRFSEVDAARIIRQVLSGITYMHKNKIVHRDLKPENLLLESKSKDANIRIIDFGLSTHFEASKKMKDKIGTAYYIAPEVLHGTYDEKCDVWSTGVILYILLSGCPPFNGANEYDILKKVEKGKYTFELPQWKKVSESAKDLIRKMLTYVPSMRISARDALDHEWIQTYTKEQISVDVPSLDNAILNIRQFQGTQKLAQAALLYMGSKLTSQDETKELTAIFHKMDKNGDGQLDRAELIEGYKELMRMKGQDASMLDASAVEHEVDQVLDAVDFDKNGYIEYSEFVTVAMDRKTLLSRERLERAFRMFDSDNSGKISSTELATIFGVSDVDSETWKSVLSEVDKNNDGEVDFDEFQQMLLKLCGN
Assay: biochemical
Details: inhibition of T. gondii CDPK1; at least three independent replicates; read-out: tgCDPK1 IC50
Method: Certain of the compounds prepared as described above were assayed to determine their IC50 for inhibition of T. gondii CDPK1 (tgCDPK1). At least three independent replicates of the assay were conducted for each compound tested.

SMILES | pIC50
Nc1ncnc2c1c(Oc1cc(C(F)(F)F)ccn1)nn2C1CCCNC1 (centres unmarked) [Compound 195] | 7.25
CC(C)(C)OC(=O)N1CCC(Cn2nc(Oc3cc(C(F)(F)F)ccn3)c3c(N)ncnc32)C(F)(F)C1 (centres unmarked) [Compound 196] | 7.19
Nc1ncnc2c1c(Oc1cc(C(F)(F)F)ccn1)nn2CC1CCNCC1(F)F (centres unmarked) [Compound 197] | 7.86
Nc1ncnc2c1c(Oc1cc(C(F)(F)F)ccn1)nn2C1CCOCC1 [Compound 198] | 7.53
CC(C)(C)OC(=O)N1CCC(n2nc(Oc3cc(C(F)(F)F)ccn3)c3c(N)ncnc32)C1 (centres unmarked) [Compound 199] | 7.41
Nc1ncnc2c1c(Oc1cc(C(F)(F)F)ccn1)nn2C1CCCCC1 [Compound 200] | 7.83
Nc1ncnc2c1c(Oc1cc(Cl)ccn1)nn2C1CCCC1 [Compound 201] | 7.78
Nc1ncnc2c1c(Oc1cc(Cl)ccn1)nn2C1CCOC1 (centres unmarked) [Compound 202] | 7.25
N#Cc1ccnc(Oc2nn(C3CCC(F)(F)CC3)c3ncnc(N)c23)c1 [Compound 203] | 7.07
NC(=O)c1ccnc(Oc2nn(C3CCCC3)c3ncnc(N)c23)c1 [Compound 204] | 7.17
NC(=O)c1ccnc(Oc2nn(C3CCCCC3)c3ncnc(N)c23)c1 [Compound 205] | 7.57
NC(=O)c1ccnc(Oc2nn(C3CCC(F)(F)CC3)c3ncnc(N)c23)c1 [Compound 206] | 7.01
N#Cc1ccnc(Oc2nn([C@H]3CC[C@@H](C(F)(F)F)CC3)c3ncnc(N)c23)c1 [Compound 207] | 7.63
NC(=O)c1ccnc(Oc2nn([C@H]3CC[C@@H](C(F)(F)F)CC3)c3ncnc(N)c23)c1 [Compound 208] | 7.05
N#Cc1ccnc(Oc2nn([C@H]3CC[C@H](C(F)(F)F)CC3)c3ncnc(N)c23)c1 [Compound 209] | 7.59
CC(C)(C)OC(=O)N1CCC(Cn2nc(Oc3cc(Cl)ccn3)c3c(N)ncnc32)C(F)(F)C1 (centres unmarked) [Compound 212] | 7.51
Nc1ncnc2c1c(Oc1cc(Cl)ccn1)nn2CC1CCNCC1(F)F (centres unmarked) [Compound 213] | 8.01
Nc1ncnc2c1c(Oc1cc(Cl)ccn1)nn2C1CCCCC1 [Compound 214] | 8.34

SMILES | pIC50
N#Cc1ccnc(Oc2nn(C3CCCCC3)c3ncnc(N)c23)c1 [Compound 215] | 7.91
Nc1ncnc2c1c(Oc1cc(Cl)ccn1)nn2C1CCCOC1 (centres unmarked) [Compound 216] | 7.80
COc1ccnc(Oc2nn(C3CCOC3)c3ncnc(N)c23)c1 (centres unmarked) [Compound 219] | 7.11
COc1ccnc(Oc2nn(C3CCOCC3)c3ncnc(N)c23)c1 [Compound 220] | 7.26
N#Cc1ccnc(Oc2nn(CC3CC3)c3ncnc(N)c23)c1 [Compound 221] | 7.62
Nc1ncnc2c1c(Oc1cc(Cl)ccn1)nn2C1CCCNC1 (centres unmarked) [Compound 222] | 7.61
COc1ccnc(Oc2nn(CC3CC3)c3ncnc(N)c23)c1 [Compound 223] | 7.60
CC(C)(C)OC(=O)N1CCCC(n2nc(Oc3cc(Cl)ccn3)c3c(N)ncnc32)C1 (centres unmarked) [Compound 224] | 7.36
Nc1ncnc2c1c(Oc1cc(Cl)ccn1)nn2CC1CC1 [Compound 225] | 8.05
CN(C)C1CCC(n2nc(Oc3cc(C(F)(F)F)ccn3)c3c(N)ncnc32)CC1 (centres unmarked) [Compound 227] | 7.55
COC(=O)C1CCC(n2nc(Oc3cc(C(F)(F)F)ccn3)c3c(N)ncnc32)CC1 (centres unmarked) [Compound 228] | 7.60
Nc1ncnc2c1c(Oc1cc(C(F)(F)F)ccn1)nn2C1CCC(O)C1 (centres unmarked) [Compound 230] | 7.62
Nc1ncnc2c1c(Oc1cc(C(F)(F)F)ccn1)nn2[C@H]1CC[C@@H](O)CC1 [Compound 231] | 7.73
Nc1ncnc2c1c(Oc1cc(C(F)(F)F)ccn1)nn2C1CCC(N)CC1 (centres unmarked) [Compound 232] | 7.61
Nc1ncnc2c1c(Oc1cc(C(F)(F)F)ccn1)nn2[C@H]1CCCC[C@H]1F [Compound 233] | 7.46
Nc1ncnc2c1c(Oc1cc(C(F)(F)F)ccn1)nn2C1CC2CNC1C2 (centres unmarked) [Compound 234] | 7.12
Nc1ncnc2c1c(Oc1cc(C(F)(F)F)ccn1)nn2[C@H]1CC[C@H](O)CC1 [Compound 235] | 7.80
